test system: wheat (Tr); experiment: Test Example 9: crop plant selectivity by upland field foliage treatment (wheat), phytotoxicity; conditions: dose 1.6 g ai/10a, 14th day after treatment;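 note: grade of crop injury; 5 = at least 90%; 4 = 70 to 90%; 3 = 50 to 70%; 2 = 30 to 50%; 1 = 10 to 30%; 0 = under 10%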
Protocol: (§1) (Test on Crop Plant Selectivity by Upland Field Foliage Treatment)
(§2) In a plastic pot (surface area: 600 cm^2) filled with sand, wheat (Tr), pale smartweed (Po), slender amaranth (Am), common lambsquarters (Ch) and China jute (Ab) were sown and cultured in a green house for 2 weeks. […] The plants were then cultured in a green house, and the evaluation of the herbicidal effects and phytotoxicity was conducted on the 14th day after the treatment in accordance with the standards as identified in Table 47.

Row | Structure (SMILES) | Phytotoxicity Tr
1 | CCn1c(=O)sc2cc(F)c(-c3ccc(C(F)(F)F)n(C)c3=O)cc21 [Compound 3-7] | 2
2 | CCC(OC)c1cc2c(-c3ccc(C(F)(F)F)n(C)c3=O)c(F)cc(Cl)c2o1 (centres unmarked) [Compound 4-39] | 2
3 | COC(C)c1cc2c(-c3ccc(C(F)(F)F)n(C)c3=O)c(F)cc(Cl)c2o1 (centres unmarked) [Compound 4-35] | 2
4 | CC(Br)c1cc2c(-c3ccc(C(F)(F)F)n(C)c3=O)c(F)cc(Cl)c2o1 (centres unmarked) [Compound 4-34] | 2

test system: common lambsquarters (Ch); experiment: Test Example 9: crop plant selectivity by upland field foliage treatment (wheat), herbicidal effects; assay type: in vivo; set-up: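 grade of growth control; 5 = at least 90%; 4 = 70 to 90%; 3 = 50 to 70%; 2 = 30 to 50%; 1 = 10 to 30%; 0 = under 10%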; conditions: dose 1.6 g ai/10a, 14th day after treatment
Protocol: as §1, §2

Row | Structure (SMILES) | Herbicidal effects Ch
5 | CCn1c(=O)sc2cc(F)c(-c3ccc(C(F)(F)F)n(C)c3=O)cc21 [Compound 3-7] | 5
6 | CCC(OC)c1cc2c(-c3ccc(C(F)(F)F)n(C)c3=O)c(F)cc(Cl)c2o1 (centres unmarked) [Compound 4-39] | 5
7 | COC(C)c1cc2c(-c3ccc(C(F)(F)F)n(C)c3=O)c(F)cc(Cl)c2o1 (centres unmarked) [Compound 4-35] | 5
8 | CC(Br)c1cc2c(-c3ccc(C(F)(F)F)n(C)c3=O)c(F)cc(Cl)c2o1 (centres unmarked) [Compound 4-34] | 5

test system: China jute (Ab); experiment: as above; assay type: in vivo; set-up: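 grade of growth control; 5 = at least 90%; 4 = 70 to 90%; 3 = 50 to 70%; 2 = 30 to 50%; 1 = 10 to 30%; 0 = under 10%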; conditions: dose 1.6 g ai/10a, 14th day after treatment
Protocol: as §1, §2

Row | Structure (SMILES) | Herbicidal effects Ab
9 | CCn1c(=O)sc2cc(F)c(-c3ccc(C(F)(F)F)n(C)c3=O)cc21 [Compound 3-7] | 5
10 | CCC(OC)c1cc2c(-c3ccc(C(F)(F)F)n(C)c3=O)c(F)cc(Cl)c2o1 (centres unmarked) [Compound 4-39] | 5
11 | COC(C)c1cc2c(-c3ccc(C(F)(F)F)n(C)c3=O)c(F)cc(Cl)c2o1 (centres unmarked) [Compound 4-35] | 5
12 | CC(Br)c1cc2c(-c3ccc(C(F)(F)F)n(C)c3=O)c(F)cc(Cl)c2o1 (centres unmarked) [Compound 4-34] | 5

test system: pale smartweed (Po); experiment: as above; assay type: in vivo; set-up: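 grade of growth control; 5 = at least 90%; 4 = 70 to 90%; 3 = 50 to 70%; 2 = 30 to 50%; 1 = 10 to 30%; 0 = under 10%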; conditions: dose 1.6 g ai/10a, 14th day after treatment
Protocol: as §1, §2

Row | Structure (SMILES) | Herbicidal effects Po
13 | CCn1c(=O)sc2cc(F)c(-c3ccc(C(F)(F)F)n(C)c3=O)cc21 [Compound 3-7] | 5
14 | CCC(OC)c1cc2c(-c3ccc(C(F)(F)F)n(C)c3=O)c(F)cc(Cl)c2o1 (centres unmarked) [Compound 4-39] | 5
15 | COC(C)c1cc2c(-c3ccc(C(F)(F)F)n(C)c3=O)c(F)cc(Cl)c2o1 (centres unmarked) [Compound 4-35] | 5
16 | CC(Br)c1cc2c(-c3ccc(C(F)(F)F)n(C)c3=O)c(F)cc(Cl)c2o1 (centres unmarked) [Compound 4-34] | 5

test system: slender amaranth (Am); experiment: as above; assay type: in vivo; set-up: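 grade of growth control; 5 = at least 90%; 4 = 70 to 90%; 3 = 50 to 70%; 2 = 30 to 50%; 1 = 10 to 30%; 0 = under 10%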; conditions: dose 1.6 g ai/10a, 14th day after treatment
Protocol: as §1, §2

Row | Structure (SMILES) | Herbicidal effects Am
17 | CCn1c(=O)sc2cc(F)c(-c3ccc(C(F)(F)F)n(C)c3=O)cc21 [Compound 3-7] | 5
18 | CCC(OC)c1cc2c(-c3ccc(C(F)(F)F)n(C)c3=O)c(F)cc(Cl)c2o1 (centres unmarked) [Compound 4-39] | 5
19 | COC(C)c1cc2c(-c3ccc(C(F)(F)F)n(C)c3=O)c(F)cc(Cl)c2o1 (centres unmarked) [Compound 4-35] | 5
20 | CC(Br)c1cc2c(-c3ccc(C(F)(F)F)n(C)c3=O)c(F)cc(Cl)c2o1 (centres unmarked) [Compound 4-34] | 5

test system: monochoria (Mo); experiment: Test Example 1: herbicidal effects by paddy field soil treatment; assay type: in vivo; conditions: 100 g of the active ingredient per 10 ares, 21st day after the application, index 0-5 of Table 47;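 note: grade of growth control; 5 = at least 90%; 4 = 70 to 90%; 3 = 50 to 70%; 2 = 30 to 50%; 1 = 10 to 30%; 0 = under 10%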
Outline: (§3)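 Herbicidal effect was scored against a graded standard 21 days after treatment. Seeds were sown in puddled, leveled paddy soil flooded to 3 cm depth, and the active ingredient was applied at 100 g per 10 ares before greenhouse culture.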

Row | Structure (SMILES) | Herbicidal effects Mo
21 | CCn1c(=O)sc2cc(F)c(-c3ccc(C(F)(F)F)n(C)c3=O)cc21 [Compound 3-7] | 5
22 | CC(Br)c1cc2c(-c3ccc(C(F)(F)F)n(C)c3=O)c(F)cc(Cl)c2o1 (centres unmarked) [Compound 4-34] | 5

test system: barnyardgrass (Ec); experiment: as above; assay type: in vivo; conditions: 100 g of the active ingredient per 10 ares, 21st day after the application, index 0-5 of Table 47
Outline: as §3

Row | Structure (SMILES) | Herbicidal effects Ec
23 | CCn1c(=O)sc2cc(F)c(-c3ccc(C(F)(F)F)n(C)c3=O)cc21 [Compound 3-7] | 5
24 | CC(Br)c1cc2c(-c3ccc(C(F)(F)F)n(C)c3=O)c(F)cc(Cl)c2o1 (centres unmarked) [Compound 4-34] | 5

test system: bulrush (Sc); experiment: as above; assay type: in vivo; conditions: 100 g of the active ingredient per 10 ares, 21st day after the application, index 0-5 of Table 47;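 note: grade of growth control; 5 = at least 90%; 4 = 70 to 90%; 3 = 50 to 70%; 2 = 30 to 50%; 1 = 10 to 30%; 0 = under 10%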
Outline: as §3

Row | Structure (SMILES) | Herbicidal effects Sc
25 | CCn1c(=O)sc2cc(F)c(-c3ccc(C(F)(F)F)n(C)c3=O)cc21 [Compound 3-7] | 5
26 | CC(Br)c1cc2c(-c3ccc(C(F)(F)F)n(C)c3=O)c(F)cc(Cl)c2o1 (centres unmarked) [Compound 4-34] | 5

test system: rice flatsedge (Ci); experiment: Test Example 2: herbicidal effects by upland field soil treatment; assay type: in vivo; conditions: 100 g of the active ingredient per 10 ares, evaluated on the 21st day after application;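 note: grade of growth control; 5 = at least 90%; 4 = 70 to 90%; 3 = 50 to 70%; 2 = 30 to 50%; 1 = 10 to 30%; 0 = under 10%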
From the text: (§4) (Test on Herbicidal Effects by Upland Field Soil Treatment)

Row | Structure (SMILES) | Herbicidal effects Ci
27 | CCn1c(=O)sc2cc(F)c(-c3ccc(C(F)(F)F)n(C)c3=O)cc21 [Compound 3-7] | 5
28 | COC(C)c1cc2c(-c3ccc(C(F)(F)F)n(C)c3=O)c(F)cc(Cl)c2o1 (centres unmarked) [Compound 4-35] | 5
29 | CC(Br)c1cc2c(-c3ccc(C(F)(F)F)n(C)c3=O)c(F)cc(Cl)c2o1 (centres unmarked) [Compound 4-34] | 5

test system: common lambsquarters (Ch); experiment: as above; assay type: in vivo; conditions: 100 g of the active ingredient per 10 ares, evaluated on the 21st day after application
From the text: as §4

Row | Structure (SMILES) | Herbicidal effects Ch
30 | CCn1c(=O)sc2cc(F)c(-c3ccc(C(F)(F)F)n(C)c3=O)cc21 [Compound 3-7] | 5
31 | COC(C)c1cc2c(-c3ccc(C(F)(F)F)n(C)c3=O)c(F)cc(Cl)c2o1 (centres unmarked) [Compound 4-35] | 5
32 | CC(Br)c1cc2c(-c3ccc(C(F)(F)F)n(C)c3=O)c(F)cc(Cl)c2o1 (centres unmarked) [Compound 4-34] | 5

test system: Digitaria ciliaris (Di); experiment: as above; assay type: in vivo; conditions: 100 g of the active ingredient per 10 ares, evaluated on the 21st day after application
From the text: as §4

Row | Structure (SMILES) | Herbicidal effects Di
33 | CCn1c(=O)sc2cc(F)c(-c3ccc(C(F)(F)F)n(C)c3=O)cc21 [Compound 3-7] | 5
34 | COC(C)c1cc2c(-c3ccc(C(F)(F)F)n(C)c3=O)c(F)cc(Cl)c2o1 (centres unmarked) [Compound 4-35] | 5
35 | CC(Br)c1cc2c(-c3ccc(C(F)(F)F)n(C)c3=O)c(F)cc(Cl)c2o1 (centres unmarked) [Compound 4-34] | 5

test system: barnyardgrass (Ec); experiment: as above; assay type: in vivo; conditions: 100 g of the active ingredient per 10 ares, evaluated on the 21st day after application
From the text: as §4

Row | Structure (SMILES) | Herbicidal effects Ec
36 | CCn1c(=O)sc2cc(F)c(-c3ccc(C(F)(F)F)n(C)c3=O)cc21 [Compound 3-7] | 5
37 | COC(C)c1cc2c(-c3ccc(C(F)(F)F)n(C)c3=O)c(F)cc(Cl)c2o1 (centres unmarked) [Compound 4-35] | 5
38 | CC(Br)c1cc2c(-c3ccc(C(F)(F)F)n(C)c3=O)c(F)cc(Cl)c2o1 (centres unmarked) [Compound 4-34] | 5

test system: pale smartweed (Po); experiment: as above; assay type: in vivo; conditions: 100 g of the active ingredient per 10 ares, evaluated on the 21st day after application
From the text: as §4

Row | Structure (SMILES) | Herbicidal effects Po
39 | CCn1c(=O)sc2cc(F)c(-c3ccc(C(F)(F)F)n(C)c3=O)cc21 [Compound 3-7] | 5
40 | COC(C)c1cc2c(-c3ccc(C(F)(F)F)n(C)c3=O)c(F)cc(Cl)c2o1 (centres unmarked) [Compound 4-35] | 5
41 | CC(Br)c1cc2c(-c3ccc(C(F)(F)F)n(C)c3=O)c(F)cc(Cl)c2o1 (centres unmarked) [Compound 4-34] | 5

test system: slender amaranth (Am); experiment: as above; assay type: in vivo; conditions: 100 g of the active ingredient per 10 ares, evaluated on the 21st day after application
From the text: as §4

Row | Structure (SMILES) | Herbicidal effects Am
42 | CCn1c(=O)sc2cc(F)c(-c3ccc(C(F)(F)F)n(C)c3=O)cc21 [Compound 3-7] | 5
43 | COC(C)c1cc2c(-c3ccc(C(F)(F)F)n(C)c3=O)c(F)cc(Cl)c2o1 (centres unmarked) [Compound 4-35] | 5
44 | CC(Br)c1cc2c(-c3ccc(C(F)(F)F)n(C)c3=O)c(F)cc(Cl)c2o1 (centres unmarked) [Compound 4-34] | 5

test system: rice flatsedge (Ci); experiment: Test Example 3: herbicidal effects by upland field foliage treatment; assay type: in vivo; set-up: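 grade of growth control; 5 = at least 90%; 4 = 70 to 90%; 3 = 50 to 70%; 2 = 30 to 50%; 1 = 10 to 30%; 0 = under 10%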; conditions: 100 g active ingredient per 10 ares, evaluated 14th day after treatment
Outline: (§5)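 Readout: visual herbicidal rating per defined standards, 14th day after treatment. Plants sown in sand (pot area 120 cm^2), soil-covered, greenhouse-cultured for 2 weeks prior to foliage application, then greenhouse-grown until scoring.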

Row | Structure (SMILES) | Herbicidal effects Ci
45 | CCn1c(=O)sc2cc(F)c(-c3ccc(C(F)(F)F)n(C)c3=O)cc21 [Compound 3-7] | 5
46 | COC(C)c1cc2c(-c3ccc(C(F)(F)F)n(C)c3=O)c(F)cc(Cl)c2o1 (centres unmarked) [Compound 4-35] | 5
47 | CC(Br)c1cc2c(-c3ccc(C(F)(F)F)n(C)c3=O)c(F)cc(Cl)c2o1 (centres unmarked) [Compound 4-34] | 5

test system: common lambsquarters (Ch); experiment: as above; assay type: in vivo; set-up: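 grade of growth control; 5 = at least 90%; 4 = 70 to 90%; 3 = 50 to 70%; 2 = 30 to 50%; 1 = 10 to 30%; 0 = under 10%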; conditions: 100 g active ingredient per 10 ares, evaluated 14th day after treatment
Outline: as §5

Row | Structure (SMILES) | Herbicidal effects Ch
48 | CCn1c(=O)sc2cc(F)c(-c3ccc(C(F)(F)F)n(C)c3=O)cc21 [Compound 3-7] | 5
49 | COC(C)c1cc2c(-c3ccc(C(F)(F)F)n(C)c3=O)c(F)cc(Cl)c2o1 (centres unmarked) [Compound 4-35] | 5
50 | CC(Br)c1cc2c(-c3ccc(C(F)(F)F)n(C)c3=O)c(F)cc(Cl)c2o1 (centres unmarked) [Compound 4-34] | 5

test system: barnyardgrass (Ec); experiment: as above; assay type: in vivo; set-up: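 grade of growth control; 5 = at least 90%; 4 = 70 to 90%; 3 = 50 to 70%; 2 = 30 to 50%; 1 = 10 to 30%; 0 = under 10%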; conditions: 100 g active ingredient per 10 ares, evaluated 14th day after treatment
Outline: as §5

Row | Structure (SMILES) | Herbicidal effects Ec
51 | CCn1c(=O)sc2cc(F)c(-c3ccc(C(F)(F)F)n(C)c3=O)cc21 [Compound 3-7] | 5
52 | COC(C)c1cc2c(-c3ccc(C(F)(F)F)n(C)c3=O)c(F)cc(Cl)c2o1 (centres unmarked) [Compound 4-35] | 5
53 | CC(Br)c1cc2c(-c3ccc(C(F)(F)F)n(C)c3=O)c(F)cc(Cl)c2o1 (centres unmarked) [Compound 4-34] | 5

test system: pale smartweed (Po); experiment: as above; assay type: in vivo; set-up: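 grade of growth control; 5 = at least 90%; 4 = 70 to 90%; 3 = 50 to 70%; 2 = 30 to 50%; 1 = 10 to 30%; 0 = under 10%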; conditions: 100 g active ingredient per 10 ares, evaluated 14th day after treatment
Outline: as §5

Row | Structure (SMILES) | Herbicidal effects Po
54 | CCn1c(=O)sc2cc(F)c(-c3ccc(C(F)(F)F)n(C)c3=O)cc21 [Compound 3-7] | 5
55 | COC(C)c1cc2c(-c3ccc(C(F)(F)F)n(C)c3=O)c(F)cc(Cl)c2o1 (centres unmarked) [Compound 4-35] | 5
56 | CC(Br)c1cc2c(-c3ccc(C(F)(F)F)n(C)c3=O)c(F)cc(Cl)c2o1 (centres unmarked) [Compound 4-34] | 5

test system: slender amaranth (Am); experiment: as above; assay type: in vivo; set-up: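 grade of growth control; 5 = at least 90%; 4 = 70 to 90%; 3 = 50 to 70%; 2 = 30 to 50%; 1 = 10 to 30%; 0 = under 10%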; conditions: 100 g active ingredient per 10 ares, evaluated 14th day after treatment
Outline: as §5

Row | Structure (SMILES) | Herbicidal effects Am
57 | CCn1c(=O)sc2cc(F)c(-c3ccc(C(F)(F)F)n(C)c3=O)cc21 [Compound 3-7] | 5
58 | COC(C)c1cc2c(-c3ccc(C(F)(F)F)n(C)c3=O)c(F)cc(Cl)c2o1 (centres unmarked) [Compound 4-35] | 5
59 | CC(Br)c1cc2c(-c3ccc(C(F)(F)F)n(C)c3=O)c(F)cc(Cl)c2o1 (centres unmarked) [Compound 4-34] | 5

test system: Diaitaria ciliaris (Di); experiment: as above; assay type: in vivo; set-up: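 grade of growth control; 5 = at least 90%; 4 = 70 to 90%; 3 = 50 to 70%; 2 = 30 to 50%; 1 = 10 to 30%; 0 = under 10%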; conditions: 100 g active ingredient per 10 ares, evaluated 14th day after treatment
Outline: as §5

Row | Structure (SMILES) | Herbicidal effects Di
60 | CCn1c(=O)sc2cc(F)c(-c3ccc(C(F)(F)F)n(C)c3=O)cc21 [Compound 3-7] | 5
61 | COC(C)c1cc2c(-c3ccc(C(F)(F)F)n(C)c3=O)c(F)cc(Cl)c2o1 (centres unmarked) [Compound 4-35] | 5
62 | CC(Br)c1cc2c(-c3ccc(C(F)(F)F)n(C)c3=O)c(F)cc(Cl)c2o1 (centres unmarked) [Compound 4-34] | 5

From patent publication US6472348B1, “Pyridone derivatives and herbicides” (Kumiai Chemical Industry Co., Ltd., priority 1996, dated 2002)
